According to US11136296B2, “Substituted N-arylethyl-2-arylquinoline-4-carboxamides and use thereof” (Bayer Aktiengesellschaft, priority 2017, dated 2021):

Molecular target: FP receptor (Homo sapiens (Human), UniProt P43088)
Experiment: In vitro test of inhibition of human FP receptor activity (PGF2α-induced calcium flux in FP-expressing CHEM1 cells)
Format: cell-based
Conditions: PGF2α-induced (2 nM) calcium flux in FP-expressing CHEM1 cells; some as mean values from multiple determinations
Text: Table 1 below lists the IC50 values from this assay for individual working examples of the invention (some as mean values from multiple independent individual determinations): […]

FP receptor, sequence (P43088 whole entry): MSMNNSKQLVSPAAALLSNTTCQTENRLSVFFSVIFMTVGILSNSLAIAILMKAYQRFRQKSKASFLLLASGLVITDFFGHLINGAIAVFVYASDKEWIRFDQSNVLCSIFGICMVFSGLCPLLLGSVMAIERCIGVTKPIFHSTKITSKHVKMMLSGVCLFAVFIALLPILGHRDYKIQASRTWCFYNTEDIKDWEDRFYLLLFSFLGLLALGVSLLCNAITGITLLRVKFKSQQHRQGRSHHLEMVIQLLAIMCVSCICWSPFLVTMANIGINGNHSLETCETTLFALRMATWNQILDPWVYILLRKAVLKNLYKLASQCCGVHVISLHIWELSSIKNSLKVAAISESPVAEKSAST

SMILES | IC50 [nM]
Cc1c(-c2ccccc2)nc2ccc(Br)cc2c1C(=O)NCC(C(=O)O)c1ccccc1 (racemic) [Example 1, (+/−)-3-{[(6-Bromo-3-methyl-2-phenylquinolin-4-yl)carbonyl]amino}-2-phenylpropanoic Acid] | 130
COc1ccccc1C(CNC(=O)c1c(C)c(-c2ccccc2)nc2ccc(Br)cc12)C(=O)O (racemic) [Example 7, (+/−)-3-{[(6-Bromo-3-methyl-2-phenylquinolin-4-yl)carbonyl]amino}-2-(2-methoxyphenyl)propanoic Acid] | 24
Cc1c(-c2ccccc2)nc2ccc(Br)cc2c1C(=O)NCC(C(=O)O)c1ccc(F)cc1 (racemic) [Example 10, (+/−)-3-{[(6-Bromo-3-methyl-2-phenylquinolin-4-yl)carbonyl]amino}-2-(4-fluorophenyl)propanoic Acid] | 320
Cc1c(-c2ccccc2)nc2ccc(Br)cc2c1C(=O)NCC(C)(C(=O)O)c1ccccc1 (racemic) [Example 13, (+/−)-3-{[(6-Bromo-3-methyl-2-phenylquinolin-4-yl)carbonyl]amino}-2-methyl-2-phenylpropanoic Acid] | 94
CCC(CNC(=O)c1c(C)c(-c2ccccc2)nc2ccc(Br)cc12)(C(=O)O)c1ccccc1 (racemic) [Example 16, (+/−)-2-({[(6-Bromo-3-methyl-2-phenylquinolin-4-yl)carbonyl]amino}methyl)-2-phenylbutanoic Acid] | 170
Cc1c(-c2ccccc2)nc2ccc(Br)cc2c1C(=O)NCC(O)(C(=O)O)c1ccccc1 (racemic) [Example 19, (+/−)-3-{[(6-Bromo-3-methyl-2-phenylquinolin-4-yl)carbonyl]amino}-2-hydroxy-2-phenylpropanoic Acid] | 150
Cc1c(-c2ccccc2)nc2ccc(Br)cc2c1C(=O)NCC(C(=O)O)c1cccc(C(F)(F)F)c1 (racemic) [Example 22, (+/−)-3-{[(6-Bromo-3-methyl-2-phenylquinolin-4-yl)carbonyl]amino}-2-[3-(trifluoromethyl)phenyl]propanoic Acid] | 76
Cc1c(-c2ccccc2)nc2ccc(Br)cc2c1C(=O)NCC(C(=O)O)c1ccc2c(c1)OCO2 (racemic) [Example 23, (+/−)-2-(1,3-Benzodioxol-5-yl)-3-{[(6-bromo-3-methyl-2-phenylquinolin-4-yl)carbonyl]amino}propanoic Acid] | 530
Cc1c(-c2ccccc2)nc2ccc(Br)cc2c1C(=O)NCC(C)(C(=O)O)c1ncccc1Cl (racemic) [Example 26, (+/−)-3-{[(6-Bromo-3-methyl-2-phenylquinolin-4-yl)carbonyl]amino}-2-(3-chloropyridin-2-yl)-2-methylpropanoic Acid] | 44
Cc1c(-c2ccccc2)nc2ccc(Br)cc2c1C(=O)NCC(C)(C(=O)O)c1ccccc1F (racemic) [Example 29, (+/−)-3-{[(6-Bromo-3-methyl-2-phenylquinolin-4-yl)carbonyl]amino}-2-(2-fluorophenyl)-2-methylpropanoic Acid] | 140
Cc1c(-c2ccccc2)nc2ccc(Br)cc2c1C(=O)NCC(C)(C(=O)O)c1c(F)cccc1F (racemic) [Example 32, (+/−)-3-{[(6-Bromo-3-methyl-2-phenylquinolin-4-yl)carbonyl]amino}-2-(2,6-difluorophenyl)-2-methylpropanoic Acid] | 150
Cc1c(-c2ccccc2)nc2ccc(Br)cc2c1C(=O)NCC(C)(C(=O)O)c1ccccc1Cl (racemic) [Example 35, (+/−)-3-{[(6-Bromo-3-methyl-2-phenylquinolin-4-yl)carbonyl]amino}-2-(2-chlorophenyl)-2-methylpropanoic Acid] | 190
Cc1c(-c2ccccc2)nc2ccc(Br)cc2c1C(=O)NCC(F)(C(=O)O)c1ccccc1 (racemic) [Example 38, (+/−)-3-{[(6-Bromo-3-methyl-2-phenylquinolin-4-yl)carbonyl]amino}-2-fluoro-2-phenylpropanoic Acid] | 47
